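Where inhibition never reached the appropriate level, the endpoint shown equals the highest concentration tested. Otherwise, values were interpolated linearly from a five-concentration, 48-hour dose response in 96-well plates. GI50 = concentration required for 50% inhibition of growth. TGI marks complete inhibition of growth.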
How the values were obtained:
Test in all cases: growth of human tumour cells (NCI), 48 h
SF-268 CNS = tested on: SF-268 CNS
SF-539 CNS = tested on: SF-539 CNS
A549 NSCLC = tested on: A549 NSCLC
OVCAR-8 ovarian = tested on: OVCAR-8 ovarian
NCI-H460 lung = tested on: NCI-H460 lung
NCI-H522 lung = tested on: NCI-H522 lung
M14 melanoma = tested on: M14 melanoma
SW-620 colon = tested on: SW-620 colon
PC-3 prostate = tested on: PC-3 prostate
T-47D breast = tested on: T-47D breast

Row | Compound | TGI (SF-268 CNS) [µM] | TGI (SF-539 CNS) [µM] | TGI (A549 NSCLC) [µM] | TGI (OVCAR-8 ovarian) [µM] | TGI (NCI-H460 lung) [µM] | TGI (NCI-H522 lung) [µM] | TGI (M14 melanoma) [µM] | TGI (SW-620 colon) [µM] | TGI (PC-3 prostate) [µM] | TGI (T-47D breast) [µM] | GI50 (SF-268 CNS) [µM] | GI50 (SF-539 CNS) [µM] | GI50 (PC-3 prostate) [µM] | GI50 (A549 NSCLC) [µM] | GI50 (OVCAR-8 ovarian) [µM] | GI50 (NCI-H460 lung) [µM] | GI50 (NCI-H522 lung) [µM] | GI50 (SW-620 colon) [µM]
1 | COc1ccc([C@H]2CC3C(=O)N(c4ccc(OC)cc4)C(=O)C3c3[nH]c4ccccc4c32)cc1 (stereo partly drawn) | > 100 | 51.6 | > 100 | > 100 | > 100 | > 100 | > 100 | > 100 | – | – | – | – | – | – | – | – | – | –
2 | COC(=O)C(CCC1(C)OCCO1)=[N+]=[N-] | > 100 | > 100 | > 100 | > 100 | > 100 | > 100 | > 100 | > 100 | – | – | – | – | – | – | – | – | – | –
3 | O=S(=O)(c1ccccc1)c1ccc(-c2nc(-c3ccc4c(c3)Sc3ccccc3S4)cs2)cc1 | > 100 | > 100 | > 100 | > 100 | > 100 | – | > 100 | > 100 | > 100 | > 100 | – | – | – | – | – | – | – | –
4 | COc1ccc(/C=C/C(=O)c2ccc(Br)cc2)cc1 | > 100 | > 100 | > 100 | > 100 | > 100 | – | > 100 | > 100 | > 100 | > 100 | – | – | – | – | – | – | – | –
5 | CN(C)CCC[N+]1=Nc2cccc3cccc(c23)N1 | > 100 | > 100 | > 100 | > 100 | > 100 | 91.2 | 39 | 44.9 | – | – | – | – | – | – | – | – | – | –
6 | CC(=O)NC(C)(C)C1CCC(C)CC1 (stereo not drawn) | > 100 | > 100 | > 100 | > 100 | > 100 | – | > 100 | > 100 | > 100 | – | – | – | – | – | – | – | – | –
7 | C=CCOC(=O)Cn1ccc(=O)[nH]c1=O | > 100 | > 100 | > 100 | > 100 | > 100 | – | > 100 | > 100 | > 100 | > 100 | – | – | – | – | – | – | – | –
8 | O=c1/c(=C/c2ccccn2)sc2nc3cc4c(cc3n12)OCCO4 | > 100 | – | > 100 | > 100 | > 100 | > 100 | > 100 | > 100 | > 100 | > 100 | – | – | – | – | – | – | – | –
9 | COc1ccc2c3/c(=C\c4ccc(N(C)C)cc4)c4ccccc4n3[n+](C)c2c1 | 3.03 | 0.748 | – | 2.33 | 28.8 | > 100 | – | > 100 | 1.5 | – | 0.437 | 0.0409 | 0.124 | 0.236 | 0.0474 | 0.16 | 0.182 | 0.0438
10 | COc1ccc(N2C(=O)/C(=C/c3ccc(N(CCC#N)CCC#N)cc3)N=C2c2ccccc2)cc1 | > 100 | > 100 | > 100 | > 100 | > 100 | – | > 100 | > 100 | > 100 | > 100 | – | – | – | – | – | – | – | –
11 | C=C(C)CCC1C=[N+]([O-])OC(C)(C)C1(C)C (stereo not drawn) | > 100 | > 100 | > 100 | > 100 | > 100 | > 100 | > 100 | > 100 | – | > 100 | – | – | – | – | – | – | – | –
12 | CC(C)(C)OC(=O)N1N=CCC1c1ccccc1 (stereo not drawn) | > 100 | > 100 | > 100 | > 100 | > 100 | > 100 | > 100 | > 100 | – | > 100 | – | – | – | – | – | – | – | –
13 | COc1ccccc1C(=O)OCC1CCCN2CCCCC12 (stereo not drawn) | > 100 | > 100 | > 100 | 45.8 | 52 | – | – | > 100 | > 100 | 81.7 | – | – | – | – | – | – | – | –
14 | O=C(NC1=C(Cl)C(=O)c2ccccc2C1=O)C(=O)C(C(=O)c1ccc2ccccc2c1)C1OC(=O)c2ccccc21 (stereo not drawn) | 29.6 | 9.66 | 17.5 | 24.5 | 12 | 12.1 | 18.2 | 28.2 | – | 29.3 | – | – | – | – | – | – | – | –
15 | O=c1[nH]c2ccc(CC(=S)N3CCOCC3)cc2o1 | > 100 | > 100 | – | > 100 | > 100 | – | > 100 | > 100 | > 100 | – | – | – | – | – | – | – | – | –
16 | Cc1ccc(NC(=O)C2C3CCC(O3)C2C(=O)O)cc1 (stereo not drawn) | > 73.2 | > 100 | > 100 | > 100 | > 100 | > 100 | > 76.4 | > 45.1 | – | – | – | – | – | – | – | – | – | –
17 | CCN(C(=O)N[C@H](C(=O)N[C@@H](CSC)C(=O)N[C@@H](C)C(=O)OC)C(C)C)c1ccccc1 | – | 39.2 | 55 | 38.2 | 32.5 | 22.3 | 28.7 | 28 | 31.6 | 76.3 | – | – | – | – | – | – | – | –
18 | O=C(CC(C(=O)c1cccs1)c1ccsc1)c1ccc(Cl)s1 (stereo not drawn) | > 100 | > 100 | > 100 | > 100 | > 100 | – | > 100 | > 100 | > 100 | > 100 | – | – | – | – | – | – | – | –
19 | Cc1nn2c(c1C#N)NNc1c-2sc(=N)nnc1=O | > 100 | > 100 | > 100 | > 100 | – | > 100 | > 100 | > 100 | – | – | – | – | – | – | – | – | – | –
20 | CCC(Nc1ncnc2nc[nH]c12)C(=O)O (stereo not drawn) | > 100 | – | > 100 | > 100 | > 100 | > 100 | > 100 | > 100 | > 100 | > 100 | – | – | – | – | – | – | – | –
21 | N#CC1=C(N)N(/N=C/c2ccco2)C(c2ccco2)C1(C#N)C#N (stereo not drawn) | 79.7 | 48.9 | 56.2 | 41.6 | – | 31.1 | 43.6 | 24.5 | 48.5 | 33.2 | – | – | – | – | – | – | – | –
22 | CN(C)S(=O)(=O)c1nc(Cl)c2[nH]cnc2n1 | > 100 | – | > 100 | > 100 | – | > 100 | > 100 | > 100 | > 100 | > 100 | – | – | – | – | – | – | – | –
